pEC50: −log10 of the molar value.
Assays:
Type in all cases: cell-based
[1] = system: Wnt activity (Sp5-Luc reporter, TCF/LEF binding sites) in SW480 colon carcinoma cells; assay: Screening assay for Wnt activity: Sp5-Luc reporter gene assay in stably transduced SW480 colon carcinoma cells; conditions: Homo sapiens, overnight incubation, 10-point curve from 10 μM
Summary of the method: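 SW480 cells stably transduced with a luciferase reporter driven by an Sp5 promoter of eight TCF/LEF sites were plated at 4,000 cells/well in 1% FBS medium. They were exposed overnight at 37° C to a 10-point 1:3 dilution series from 10 μM (0.1% DMSO). Luminescence was normalized to DMSO for four-parameter EC50, or percent inhibition at 10 μM.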

[2] = system: Primary human fibroblasts derived from IPF patients (LL29 cells) treated with TGF-β1; assay: Inhibition of the fibrotic process: αSMA staining in TGF-β1-treated primary human fibroblasts from IPF patients (LL29 cells); conditions: Fibroblast, 96 h, % αSMA-positive LL29 cells, TGF-β1 20 ng/mL, 4 days
Summary of the method: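 LL29 IPF-patient fibroblasts in 1% FBS stimulated with TGF-β1 (20 ng/mL) and compound (10 μM–1.87 nM, 0.1% DMSO) for 4 days at 37 °C. SYTOX-positive cells excluded; % αSMA-positive cells imaged, normalized to TGF-β1/DMSO wells; EC50 by nonlinear regression, else % inhibition at 10 μM.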

SW480 colon cancer cells = assay: Cell viability assay (CellTiter-Blue) in SW480 colon cancer cells; conditions: Homo sapiens, 96 h, four days, CellTiter-Blue
Summary of the method: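 Resazurin reduction (Ex 560/Em 590 nm, ~3 h reagent incubation) served as the viability read-out after SW480 cells were treated for four days at 37 °C. Doses ran from 10 μM down to 0.0045 μM in eight 1:3 steps. Curves fitted non-linearly for EC50, else % inhibition at 10 μM reported.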

IL-6 = assay: Inhibition of IL-6 in LPS-stimulated THP-1 human monocyte cells (HTRF); conditions: IL-6 inhibition, LPS-stimulated THP-1 cells, HTRF
Summary of the method: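 THP-1 cells serum-reduced (1% FBS, 24 h), then 5000 cells/well preincubated 2 h with compound (10-point 1:3 series from 10 μM, 0.1% DMSO) before 500 ng/mL LPS for 22 h at 37 °C. Secreted IL-6 quantified by HTRF 665/620 ratio; DMSO-normalised duplicates fitted to four-parameter EC50; above 10 μM, % inhibition at 10 μM given.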

SMILES | pEC50 [1] | pEC50 (SW480 colon cancer cells) | pEC50 (IL-6) | pEC50 [2]
CN(C)CCNc1cc(F)cc(-c2cccc3[nH]c(-c4n[nH]c5ccc(-c6cncc(NC(=O)C7CCC7)c6)cc45)cc23)c1 [Compound 469, N-(5-(3-(4-(3-((2-(Dimethylamino)ethyl)amino)-5-fluorophenyl)-1H-indol-2-yl)-1H-indazol-5-yl)pyridin-3-yl)cyclobutanecarboxamide] | 6.71 | 6.54 | 7.57 | 6.72
CC(C)CC(=O)Nc1cncc(-c2ccc3[nH]nc(-c4cc5c(-c6cc(F)cc(NCCN(C)C)c6)cccc5[nH]4)c3c2)c1 [Compound 450, N-(5-(3-(4-(3-((2-(Dimethylamino)ethyl)amino)-5-fluorophenyl)-1H-indol-2-yl)-1H-indazol-5-yl)pyridin-3-yl)-3-methylbutanamide] | 6.86 | 6.52 | 5.89 | 6.72
CN(C)CCNc1cc(F)cc(-c2cccc3[nH]c(-c4n[nH]c5ccc(-c6cncc(NC(=O)Cc7ccccc7)c6)cc45)cc23)c1 [Compound 458, N-(5-(3-(4-(3-((2-(Dimethylamino)ethyl)amino)-5-fluorophenyl)-1H-indol-2-yl)-1H-indazol-5-yl)pyridin-3-yl)-2-phenylacetamide] | 6.37 | 6.12 | 6.45 | 5.99
c1ccc(CNCc2cncc(-c3ccc4[nH]nc(-c5cc6c(-c7ccccn7)cccc6[nH]5)c4c3)c2)cc1 [Compound 164, N-Benzyl-1-(5-(3-(4-(pyridin-2-yl)-1H-indol-2-yl)-1H-indazol-5-yl)pyridin-3-yl)methanamine] | 6.25 | 5.64 | 6.67 | 6.72

Now from value to molecule, other results behind:

pEC50 [1] | pEC50 (SW480 colon cancer cells) | pEC50 (IL-6) | SMILES | pEC50 [2]
6.74 | 6.33 | 6.32 | FC1(F)CCN(Cc2cncc(-c3ccc4[nH]nc(-c5cc6c(-c7ccoc7)cccc6[nH]5)c4c3)c2)C1 [Compound 334, 5-(5-((3,3-Difluoropyrrolidin-1-yl)methyl)pyridin-3-yl)-3-(4-(furan-3-yl)-1H-indol-2-yl)-1H-indazole] | 6.81
6.72 | 5.58 | 7.46 | O=C(Nc1cncc(-c2ccc3[nH]nc(-c4cc5c(-c6ccc(F)cc6)cccc5[nH]4)c3c2)c1)C1CCC1 [Compound 49, N-(5-(3-(4-(4-Fluorophenyl)-1H-indol-2-yl)-1H-indazol-5-yl)pyridin-3-yl) cyclobutanecarboxamide] | 6.11
6.25 | 5.74 | 6.61 | COc1cncc(-c2ccc3[nH]nc(-c4cc5c(-c6ccsc6)cccc5[nH]4)c3c2)c1 [Compound 704, 5-(5-Methoxypyridin-3-yl)-3-(4-(thiophen-3-yl)-1H-indol-2-yl)-1H-indazole] | 7.51
6.73 | 6.35 | 6.23 | c1cc(-c2ccoc2)c2cc(-c3n[nH]c4ccc(-c5cncc(CN6CCCCC6)c5)cc34)[nH]c2c1 [Compound 323, 3-(4-(Furan-3-yl)-1H-indol-2-yl)-5-(5-(piperidin-1-ylmethyl)pyridin-3-yl)-1H-indazole] | 6.14
7.10 | 6.17 | 6.77 | CS(=O)(=O)NCc1cc(F)cc(-c2cccc3[nH]c(-c4n[nH]c5ccc(-c6cncc(N)c6)cc45)cc23)c1 [Compound 479, N-(3-(2-(5-(5-Aminopyridin-3-yl)-1H-indazol-3-yl)-1H-indol-4-yl)-5-fluorobenzyl)methanesulfonamide] | 6.87
6.89 | 5.99 | 6.00 | CS(=O)(=O)NCc1cc(F)cc(-c2cccc3[nH]c(-c4n[nH]c5ccc(-c6cncc(NC(=O)C7CC7)c6)cc45)cc23)c1 [Compound 496, N-(5-(3-(4-(3-Fluoro-5-(methylsulfonamidomethyl)phenyl)-1H-indol-2-yl)-1H-indazol-5-yl)pyridin-3-yl)cyclopropanecarboxamide] | 6.40

Source: patent US10604512B2, “3-(1H-indol-2-yl)-1H-indazoles and therapeutic uses thereof” (Samumed, LLC, priority 2015, dated 2020)
